We go through ten compounds from ChEMBL document CHEMBL5291721, “A preclinical secondary pharmacology resource illuminates target-adverse drug reaction associations of marketed drugs” (Nat Commun, 2023).

The target of assay [1] is T1, Prostaglandin G/H synthase 1 (Rattus norvegicus, UniProt Q63921).
T1 sequence (Q63921 whole entry): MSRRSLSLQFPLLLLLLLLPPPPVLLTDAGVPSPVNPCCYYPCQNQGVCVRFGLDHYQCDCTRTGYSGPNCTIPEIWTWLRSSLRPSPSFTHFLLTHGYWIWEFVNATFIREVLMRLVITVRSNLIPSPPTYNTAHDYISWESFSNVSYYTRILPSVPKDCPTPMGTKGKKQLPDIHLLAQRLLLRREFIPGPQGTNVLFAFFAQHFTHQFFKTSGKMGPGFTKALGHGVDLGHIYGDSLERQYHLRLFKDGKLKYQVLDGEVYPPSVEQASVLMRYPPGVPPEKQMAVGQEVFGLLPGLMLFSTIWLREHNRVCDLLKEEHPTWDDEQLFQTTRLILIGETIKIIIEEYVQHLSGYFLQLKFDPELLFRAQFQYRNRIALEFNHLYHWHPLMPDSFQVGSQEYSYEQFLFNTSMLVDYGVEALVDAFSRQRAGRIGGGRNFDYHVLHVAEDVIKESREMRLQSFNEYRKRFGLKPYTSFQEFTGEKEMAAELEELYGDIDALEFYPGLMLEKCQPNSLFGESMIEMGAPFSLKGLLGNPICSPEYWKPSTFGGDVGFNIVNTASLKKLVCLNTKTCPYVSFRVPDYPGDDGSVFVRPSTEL
Type of assay: functional.

Assay [2] addresses Delta-type opioid receptor (Homo sapiens, UniProt P41143).
Assay [3] addresses T2, Alpha-2A adrenergic receptor (Homo sapiens, UniProt P08913).
T2 sequence (P08913 whole entry): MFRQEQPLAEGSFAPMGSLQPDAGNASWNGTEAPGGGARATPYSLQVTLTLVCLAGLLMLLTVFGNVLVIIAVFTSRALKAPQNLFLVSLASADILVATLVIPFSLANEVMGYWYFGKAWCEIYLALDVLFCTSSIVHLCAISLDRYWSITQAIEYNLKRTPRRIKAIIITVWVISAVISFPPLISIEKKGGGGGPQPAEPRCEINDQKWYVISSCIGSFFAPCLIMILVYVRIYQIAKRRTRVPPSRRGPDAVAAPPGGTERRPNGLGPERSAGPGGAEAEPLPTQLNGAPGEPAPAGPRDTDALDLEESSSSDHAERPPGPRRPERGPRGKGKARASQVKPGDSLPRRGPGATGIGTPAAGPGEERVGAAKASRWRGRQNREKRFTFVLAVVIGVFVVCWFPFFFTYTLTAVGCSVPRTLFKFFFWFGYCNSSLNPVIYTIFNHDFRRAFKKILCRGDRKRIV
Type of assay: functional, cell-based.

The target in assay [4] is Voltage-gated inwardly rectifying potassium channel KCNH2 (Homo sapiens, UniProt Q12809). Type of assay: functional. The settings on record: read-out: AC50.
Sequence of Voltage-gated inwardly rectifying potassium channel KCNH2 (Q12809 whole entry): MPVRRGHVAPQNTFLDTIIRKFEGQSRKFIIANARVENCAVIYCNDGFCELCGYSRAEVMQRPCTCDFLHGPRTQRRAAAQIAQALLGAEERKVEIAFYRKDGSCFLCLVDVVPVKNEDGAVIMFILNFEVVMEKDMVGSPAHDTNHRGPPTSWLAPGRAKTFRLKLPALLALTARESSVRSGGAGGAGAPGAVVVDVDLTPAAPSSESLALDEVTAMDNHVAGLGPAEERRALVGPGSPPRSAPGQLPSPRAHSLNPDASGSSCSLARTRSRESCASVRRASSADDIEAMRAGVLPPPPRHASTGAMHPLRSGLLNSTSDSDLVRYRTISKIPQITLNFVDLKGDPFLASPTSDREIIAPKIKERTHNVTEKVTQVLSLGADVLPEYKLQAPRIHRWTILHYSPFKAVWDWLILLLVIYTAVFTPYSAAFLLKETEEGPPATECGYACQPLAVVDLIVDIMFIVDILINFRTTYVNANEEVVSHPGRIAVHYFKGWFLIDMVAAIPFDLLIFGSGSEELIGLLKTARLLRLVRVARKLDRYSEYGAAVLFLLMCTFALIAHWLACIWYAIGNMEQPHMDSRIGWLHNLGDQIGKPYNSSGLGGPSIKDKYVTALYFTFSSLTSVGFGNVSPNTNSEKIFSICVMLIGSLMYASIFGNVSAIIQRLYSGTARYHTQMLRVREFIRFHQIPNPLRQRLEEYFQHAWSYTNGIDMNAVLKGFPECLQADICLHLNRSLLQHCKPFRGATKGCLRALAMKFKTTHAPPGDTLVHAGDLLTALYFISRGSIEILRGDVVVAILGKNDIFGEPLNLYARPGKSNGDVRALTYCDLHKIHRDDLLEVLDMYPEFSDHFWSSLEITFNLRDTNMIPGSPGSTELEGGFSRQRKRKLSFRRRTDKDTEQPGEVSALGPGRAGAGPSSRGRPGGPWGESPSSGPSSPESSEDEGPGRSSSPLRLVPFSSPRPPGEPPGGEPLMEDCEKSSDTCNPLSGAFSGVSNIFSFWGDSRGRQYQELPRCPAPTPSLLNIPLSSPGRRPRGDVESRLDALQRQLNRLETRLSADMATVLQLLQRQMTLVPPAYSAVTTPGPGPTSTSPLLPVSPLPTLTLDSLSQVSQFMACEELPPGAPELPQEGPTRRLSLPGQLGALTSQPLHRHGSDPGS
For another assay, the target named is Adenosine receptor A2a (Homo sapiens, UniProt P29274).
Sequence of Adenosine receptor A2a (P29274 whole entry): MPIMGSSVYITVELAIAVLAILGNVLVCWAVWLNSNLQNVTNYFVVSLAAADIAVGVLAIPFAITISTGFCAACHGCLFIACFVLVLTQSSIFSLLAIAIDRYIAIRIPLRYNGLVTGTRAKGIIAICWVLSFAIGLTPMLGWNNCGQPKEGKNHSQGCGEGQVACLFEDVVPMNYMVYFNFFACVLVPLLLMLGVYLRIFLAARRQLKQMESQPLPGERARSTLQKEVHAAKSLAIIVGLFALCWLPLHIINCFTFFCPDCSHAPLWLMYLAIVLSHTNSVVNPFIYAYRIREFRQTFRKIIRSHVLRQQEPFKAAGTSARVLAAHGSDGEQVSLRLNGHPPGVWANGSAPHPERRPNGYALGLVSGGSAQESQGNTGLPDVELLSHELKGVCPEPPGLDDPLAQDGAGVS
Assay [5] deals with T3, Amine oxidase [flavin-containing] A (Homo sapiens, UniProt P21397).
T3 sequence (P21397 whole entry): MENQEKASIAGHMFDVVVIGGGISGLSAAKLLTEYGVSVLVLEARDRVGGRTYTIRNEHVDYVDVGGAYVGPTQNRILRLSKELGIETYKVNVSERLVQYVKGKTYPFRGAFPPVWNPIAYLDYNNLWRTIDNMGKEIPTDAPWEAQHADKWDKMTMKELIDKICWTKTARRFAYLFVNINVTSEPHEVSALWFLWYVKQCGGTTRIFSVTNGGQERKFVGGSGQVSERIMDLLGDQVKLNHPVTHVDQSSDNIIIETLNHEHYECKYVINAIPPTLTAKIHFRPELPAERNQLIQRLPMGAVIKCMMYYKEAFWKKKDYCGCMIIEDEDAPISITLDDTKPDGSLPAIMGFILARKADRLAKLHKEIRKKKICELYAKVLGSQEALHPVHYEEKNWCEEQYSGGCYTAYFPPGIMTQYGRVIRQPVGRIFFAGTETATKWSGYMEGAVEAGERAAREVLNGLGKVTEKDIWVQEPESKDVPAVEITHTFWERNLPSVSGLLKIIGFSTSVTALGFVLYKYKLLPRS
In kind it is functional.

The target in assay [6] is Gamma-aminobutyric acid receptor subunit alpha-1 (Rattus norvegicus, UniProt P62813). In kind it is functional.
Sequence of Gamma-aminobutyric acid receptor subunit alpha-1 (P62813 whole entry): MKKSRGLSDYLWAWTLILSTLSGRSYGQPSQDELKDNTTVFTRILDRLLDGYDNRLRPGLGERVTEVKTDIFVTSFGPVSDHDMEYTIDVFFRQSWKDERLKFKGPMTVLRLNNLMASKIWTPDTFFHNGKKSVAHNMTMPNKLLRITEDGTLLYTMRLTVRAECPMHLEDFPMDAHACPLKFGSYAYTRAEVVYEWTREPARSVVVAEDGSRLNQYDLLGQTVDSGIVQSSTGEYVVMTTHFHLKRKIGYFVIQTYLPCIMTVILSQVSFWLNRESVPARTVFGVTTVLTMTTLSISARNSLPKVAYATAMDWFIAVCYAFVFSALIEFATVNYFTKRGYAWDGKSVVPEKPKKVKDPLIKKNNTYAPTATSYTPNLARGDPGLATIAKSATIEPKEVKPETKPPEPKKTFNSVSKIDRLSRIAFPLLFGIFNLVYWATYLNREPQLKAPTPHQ
In assay [7] the target is cGMP-inhibited 3',5'-cyclic phosphodiesterase 3A (Homo sapiens, UniProt Q14432). In kind it is functional.
Sequence of cGMP-inhibited 3',5'-cyclic phosphodiesterase 3A (Q14432 whole entry): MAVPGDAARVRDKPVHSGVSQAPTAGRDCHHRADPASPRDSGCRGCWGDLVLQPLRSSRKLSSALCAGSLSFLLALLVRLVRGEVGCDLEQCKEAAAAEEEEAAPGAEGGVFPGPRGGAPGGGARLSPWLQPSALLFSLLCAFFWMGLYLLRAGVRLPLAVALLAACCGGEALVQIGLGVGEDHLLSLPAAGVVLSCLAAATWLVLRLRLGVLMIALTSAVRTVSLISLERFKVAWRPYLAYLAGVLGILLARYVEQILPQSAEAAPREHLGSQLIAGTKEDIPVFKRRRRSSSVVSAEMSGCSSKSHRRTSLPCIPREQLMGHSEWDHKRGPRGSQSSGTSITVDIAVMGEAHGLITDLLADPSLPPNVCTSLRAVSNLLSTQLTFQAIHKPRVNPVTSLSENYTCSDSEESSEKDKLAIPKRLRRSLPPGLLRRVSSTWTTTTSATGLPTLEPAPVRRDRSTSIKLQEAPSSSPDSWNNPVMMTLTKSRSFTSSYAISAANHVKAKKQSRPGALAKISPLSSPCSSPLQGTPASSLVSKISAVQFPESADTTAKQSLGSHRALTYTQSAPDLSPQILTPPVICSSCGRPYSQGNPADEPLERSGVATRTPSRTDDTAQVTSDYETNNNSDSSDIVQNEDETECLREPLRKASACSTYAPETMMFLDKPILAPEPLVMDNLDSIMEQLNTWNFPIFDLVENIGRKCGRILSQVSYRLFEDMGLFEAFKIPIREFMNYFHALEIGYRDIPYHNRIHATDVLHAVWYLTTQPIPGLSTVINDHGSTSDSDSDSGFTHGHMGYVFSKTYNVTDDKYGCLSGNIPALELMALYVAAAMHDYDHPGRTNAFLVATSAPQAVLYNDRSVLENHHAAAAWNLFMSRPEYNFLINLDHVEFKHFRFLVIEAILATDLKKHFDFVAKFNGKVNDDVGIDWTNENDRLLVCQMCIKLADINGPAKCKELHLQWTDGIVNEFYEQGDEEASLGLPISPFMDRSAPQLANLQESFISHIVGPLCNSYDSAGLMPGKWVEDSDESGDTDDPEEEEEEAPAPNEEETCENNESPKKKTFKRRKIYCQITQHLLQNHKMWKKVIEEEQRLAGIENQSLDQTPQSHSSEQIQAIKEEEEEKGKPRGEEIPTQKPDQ
The target in assay [8] is T4, 5-hydroxytryptamine receptor 3A (Homo sapiens, UniProt P46098).
T4 sequence (P46098 whole entry): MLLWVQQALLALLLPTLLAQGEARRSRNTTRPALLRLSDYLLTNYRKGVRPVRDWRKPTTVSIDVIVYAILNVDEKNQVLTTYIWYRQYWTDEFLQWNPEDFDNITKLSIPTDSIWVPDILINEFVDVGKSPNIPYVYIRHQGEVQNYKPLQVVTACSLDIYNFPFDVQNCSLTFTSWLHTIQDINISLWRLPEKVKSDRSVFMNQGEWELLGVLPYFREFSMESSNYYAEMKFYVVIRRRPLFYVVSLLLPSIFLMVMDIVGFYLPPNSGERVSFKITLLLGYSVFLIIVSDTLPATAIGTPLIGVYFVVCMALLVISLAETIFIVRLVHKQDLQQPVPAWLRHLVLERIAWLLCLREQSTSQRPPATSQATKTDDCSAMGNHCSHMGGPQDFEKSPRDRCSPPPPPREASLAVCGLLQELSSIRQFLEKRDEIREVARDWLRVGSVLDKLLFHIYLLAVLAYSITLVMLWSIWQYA
Type of assay: functional.

Assay [9] concerns the target T2, Alpha-2A adrenergic receptor. Type of assay: functional, cell-based. The source holds these as a separate data set.
Assay [10] deals with T5, Cholecystokinin receptor type A (Homo sapiens, UniProt P32238).
T5 sequence (P32238 whole entry): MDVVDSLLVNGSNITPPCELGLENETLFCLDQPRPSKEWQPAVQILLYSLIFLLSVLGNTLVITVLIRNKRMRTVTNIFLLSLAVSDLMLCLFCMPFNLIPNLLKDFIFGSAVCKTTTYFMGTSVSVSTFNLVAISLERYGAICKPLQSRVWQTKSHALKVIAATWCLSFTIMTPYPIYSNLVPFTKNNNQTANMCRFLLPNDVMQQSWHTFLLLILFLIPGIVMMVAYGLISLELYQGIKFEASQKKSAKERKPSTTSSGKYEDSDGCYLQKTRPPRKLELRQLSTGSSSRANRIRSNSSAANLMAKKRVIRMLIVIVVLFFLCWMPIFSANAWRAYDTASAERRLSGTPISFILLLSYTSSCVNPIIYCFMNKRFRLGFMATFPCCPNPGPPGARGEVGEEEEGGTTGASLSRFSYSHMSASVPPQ

In assay [11] the target is 5-hydroxytryptamine receptor 2B (Homo sapiens, UniProt P41595). In kind it is functional, cell-based.
Sequence of 5-hydroxytryptamine receptor 2B (P41595 whole entry): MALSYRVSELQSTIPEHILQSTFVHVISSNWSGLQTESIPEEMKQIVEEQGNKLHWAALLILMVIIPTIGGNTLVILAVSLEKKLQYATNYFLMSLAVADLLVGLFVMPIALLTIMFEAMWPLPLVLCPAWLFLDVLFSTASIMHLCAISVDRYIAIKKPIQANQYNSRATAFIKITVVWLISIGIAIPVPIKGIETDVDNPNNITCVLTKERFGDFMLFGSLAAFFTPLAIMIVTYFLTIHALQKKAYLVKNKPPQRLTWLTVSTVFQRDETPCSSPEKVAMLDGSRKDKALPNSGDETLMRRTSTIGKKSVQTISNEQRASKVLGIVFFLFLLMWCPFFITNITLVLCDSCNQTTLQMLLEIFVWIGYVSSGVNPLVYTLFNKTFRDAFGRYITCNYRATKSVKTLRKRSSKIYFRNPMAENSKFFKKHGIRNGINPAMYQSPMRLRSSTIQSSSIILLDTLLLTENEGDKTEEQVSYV

As a reminder, the AC50 is the midpoint of the concentration-response curve, whichever way the signal moves.
Also: assay procedure not described here.

Sequence of Delta-type opioid receptor (P41143 whole entry): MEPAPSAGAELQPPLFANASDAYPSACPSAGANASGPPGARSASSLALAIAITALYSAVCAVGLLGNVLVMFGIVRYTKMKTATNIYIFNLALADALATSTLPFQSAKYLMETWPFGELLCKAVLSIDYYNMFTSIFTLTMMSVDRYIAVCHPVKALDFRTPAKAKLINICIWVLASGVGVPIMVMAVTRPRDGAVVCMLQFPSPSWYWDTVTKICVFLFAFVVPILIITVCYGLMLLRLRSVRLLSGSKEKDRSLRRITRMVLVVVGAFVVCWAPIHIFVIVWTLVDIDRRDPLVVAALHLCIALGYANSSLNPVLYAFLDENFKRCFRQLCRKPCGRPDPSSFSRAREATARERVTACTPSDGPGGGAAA

Consider `CC[N+](CC)(CCNC(=O)C(=O)NCC[N+](CC)(CC)Cc1ccccc1Cl)Cc1ccccc1Cl` [AMBENONIUM], for which the AC50 in assay [1] was > 30 µM; in assay [2] it was > 30 µM; in assay [3] it was > 30 µM; in assay [4], 7.8 µM; at Adenosine receptor A2a it was > 30 µM; in [5], > 30 µM. The AC50 in assay [6], in assay [7], in [8], in assay [9], in [10] and in assay [11] was > 30 µM in each case.

Consider `CC(=O)SCC(Cc1ccccc1)C(=O)NCC(=O)OCc1ccccc1` (stereo not given) [RACECADOTRIL], for which the AC50 (in assay [1]; in assay [2]; in assay [3]; in assay [4]; on Adenosine receptor A2a; in assay [5]) was > 30 µM throughout. The AC50 in assay [6], in assay [7], in assay [8], in assay [9], in [10] and in [11] was > 30 µM in each case.

On to `CCOc1ccccc1OCCN[C@H](C)Cc1ccc(OC)c(S(N)(=O)=O)c1` [TAMSULOSIN], for which the half-maximal activity concentration (AC50) was > 30 µM in assay [1]; > 30 µM in assay [2]; 4.77 µM in assay [3]; 6.95 µM in [4]; > 30 µM on Adenosine receptor A2a; > 10 µM in [5]. Moreover, the half-maximal activity concentration (AC50) in [6] is > 10 µM; in assay [7], > 30 µM; in assay [8] it was > 30 µM; in assay [9], > 30 µM; in assay [10], > 30 µM; in [11], 6.4 µM.

For `NCCCNCCSP(=O)(O)O` [AMIFOSTINE], the AC50 (in assay [1]; in assay [2]; in [3]; in assay [4]; on Adenosine receptor A2a; in [5]) was > 30 µM each time. Also, the half-maximal activity concentration (AC50) in assay [6], in [7], in assay [8], in assay [9], in assay [10] and in assay [11] was > 30 µM in each case.

Take `CN(C)CCc1c[nH]c2ccc(CS(=O)(=O)N3CCCC3)cc12` [ALMOTRIPTAN]: the AC50 in assay [1] was > 30 µM; in [2], > 30 µM; in assay [3] it was > 30 µM; in assay [4] it was 15 µM; at Adenosine receptor A2a, > 30 µM; in assay [5], > 30 µM. Besides, the concentration at half-maximal activity (AC50) in [6], in assay [7], in assay [8], in assay [9], in assay [10] and in assay [11] was > 30 µM throughout.

Consider `Nc1c2c(nc3ccccc13)CCCC2O` (stereo not given) [VELNACRINE], for which the AC50 in assay [1] was > 30 µM; in [2] it was > 30 µM; in assay [3], > 30 µM; in [4] it was 25 µM; at Adenosine receptor A2a, > 30 µM; in [5] it was > 30 µM. The concentration at half-maximal activity (AC50) in assay [6], in assay [7], in assay [8], in [9], in [10] and in assay [11] was > 30 µM each time.

For `CC(C)/N=c1\cc2n(-c3ccc(Cl)cc3)c3ccccc3nc-2cc1Nc1ccc(Cl)cc1` [CLOFAZIMINE], the AC50 in [1] was > 30 µM; in assay [2], 26 µM; in [3], > 30 µM; in assay [4], 0.958 µM; at Adenosine receptor A2a, > 30 µM; in [5], > 30 µM. Besides, the AC50 is 20 µM in assay [6]; > 30 µM in [7]; > 30 µM in assay [8]; > 30 µM in assay [9]; > 30 µM in assay [10]; > 30 µM in [11].

With `O=C(O)COC(=O)Cc1ccccc1Nc1c(Cl)cccc1Cl` [ACECLOFENAC], the concentration at half-maximal activity (AC50) in [1] was > 30 µM; in assay [2], > 30 µM; in assay [3], > 10 µM; in assay [4] it was > 30 µM; on Adenosine receptor A2a, > 30 µM; in [5], > 10 µM. Further, the AC50 is > 10 µM in [6]; > 30 µM in assay [7]; > 30 µM in assay [8]; > 10 µM in assay [9]; > 30 µM in assay [10]; > 10 µM in assay [11].

For the compound `O=C(O)[C@H]1/C(=C/CO)O[C@@H]2CC(=O)N21` [CLAVULANIC ACID], the concentration at half-maximal activity (AC50) (in assay [1]; in assay [2]; in assay [3]; in assay [4]; at Adenosine receptor A2a; in assay [5]) was > 30 µM each time. The concentration at half-maximal activity (AC50) in assay [6], in assay [7], in [8], in assay [9], in [10] and in assay [11] was > 30 µM throughout.

With `NCC1(CC(=O)O)CCCCC1` [GABAPENTIN], the concentration at half-maximal activity (AC50) (in [1]; in assay [2]; in assay [3]; in [4]; at Adenosine receptor A2a; in assay [5]) was > 30 µM each time. The AC50 in [6], in assay [7], in [8], in assay [9], in assay [10] and in [11] was > 30 µM throughout.
